Measured values reported in patent publication US9770026B2, “Substituted pyrimidine compound and uses thereof” (Shenyang Sinochem Agrochemicals R&D Co., Ltd., priority 2012, dated 2017).

How the values were obtained:
[1] = system: corn rust; assay: protectant activity in vivo against corn rust
[2] = system: wheat powdery mildew; assay: protectant activity in vivo against wheat powdery mildew
[3] = system: armyworm; assay: bioactivity test against armyworm, airbrush spray; format: in vivo; conditions: mortality after 72 h; for pest or weed control at 600 ppm: 72 h
[4] = system: Green peach aphids (Myzus Persicae Sulzer); assay: bioactivity test against green peach aphid, airbrush foliar spray; format: in vivo
Outline: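 Death rate was scored at 48 hrs, held at 25±1 C and 60±5% RH, following airbrush foliar spray (0.5 mL, 10 psi) onto cabbage leaf discs bearing about 15-30 aphids. Test solutions: compound dissolved in 1:1 acetone:methanol, brought to concentration with 0.1% tween 80 water.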

[5] = system: carmine spider mite; assay: bioactivity test against carmine spider mite, airbrush spray; format: in vivo
Outline: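 Broadbean seedlings infested with adult mites were sprayed with compound (acetone/methanol stock diluted in 0.1% Tween 80 water) by airbrush at 0.7 kg/cm^2, 0.5 ml. Three replicates were run. Mortality was scored after 72 hrs.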

[6] = system: Diamond back moth; assay: insecticidal activity against diamond back moth, airbrush spray; format: in vivo
Outline: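 Airbrush leaf-disc spray test: both faces of 2 cm cabbage discs received 0.5 ml of test solution at 0.7 kg/cm^2. Solutions were made in acetone:methanol (1:1) and brought to concentration with 0.1% Tween 80 in water. Ten second-instar larvae per disc, triplicates, were held at 25° C and 60˜70% R.H., with mortality recorded at 72 hrs.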

[7] = Myzus persicae, foliar, 48 h, 2.5 mg/L, contrastive test, read-out: Insecticidal activity against peach aphid (%)
[8] = Myzus persicae, foliar, 48 h, 5 mg/L, contrastive test, read-out: Insecticidal activity against peach aphid (%)
[9] = Myzus persicae, foliar, 48 h, 10 mg/L, contrastive test, read-out: Insecticidal activity against peach aphid (%)
[10] = Myzus persicae, foliar, 48 h, 100 mg/L, contrastive test, read-out: Insecticidal activity against peach aphid (%)
[11] = Myzus persicae, foliar, 48 h, 600 mg/L, contrastive test, read-out: Insecticidal activity against peach aphid (%)
[12] = 100 ppm, mortality after 72 hrs
[13] = 10 ppm, death rate after 48 hrs
[14] = 100 ppm, death rate after 48 hrs
[15] = 600 ppm, death rate after 48 hrs
[16] = 600 ppm, mortality after 72 hrs

CCc1ncnc(NCCc2ccc(Oc3ccc(C(F)(F)F)cn3)cc2)c1Cl.Cl [Compound I-6739]
pest or weed control at 100 ppm ([1]; Zea mays, 168 h, read-out: protectant activity against corn rust in vivo, 100 ppm): 100% | pest or weed control at 400 ppm ([1]; Zea mays, 168 h, read-out: protectant activity against corn rust in vivo, 400 ppm): 100% | protectant activity against wheat powdery mildew in vivo ([2]; 25 ppm): 100% | pest or weed control at 6.25 ppm ([2]; Triticum aestivum, 168 h, read-out: protectant activity against wheat powdery mildew in vivo, 6.25 ppm): 80 to 99% | pest or weed control at 100 ppm ([2]; Triticum aestivum, 168 h, read-out: protectant activity against wheat powdery mildew in vivo, 100 ppm): 100% | pest or weed control at 400 ppm ([2]; Triticum aestivum, 168 h, read-out: protectant activity against wheat powdery mildew in vivo, 400 ppm): 100% | control (test results against armyworm) ([3]; 100 ppm): 100% | pest or weed control at 600 ppm ([3]; 600 ppm): 100% | control (test results against green peach aphid) ([4]; 2.5 ppm, death rate after 48 hrs): 100% | control (test results against green peach aphid) ([4]; 5 ppm, death rate after 48 hrs): 100% | pest or weed control at 1.25 µg/mL ([4]; Myzus persicae, foliar, 48 h, 1.25 mg/L, contrastive test, read-out: Insecticidal activity against peach aphid (%)): 100% | pest or weed control at 2.5 µg/mL [4, 7]: 100% | pest or weed control at 5 µg/mL [4, 8]: 100% | pest or weed control at 10 µg/mL [4, 9]: 100% | pest or weed control at 100 µg/mL [4, 10]: 100% | pest or weed control at 600 µg/mL [4, 11]: 100% | pest or weed control at 10 ppm ([4]; Myzus persicae, foliar, 48 h, 10 ppm, death rate after 48 hrs): 100% | pest or weed control at 100 ppm ([4]; Myzus persicae, foliar, 48 h, 100 ppm, death rate after 48 hrs): 100% | pest or weed control at 600 ppm ([4]; Myzus persicae, foliar, 48 h, 600 ppm, death rate after 48 hrs): 100% | Insecticidal activity against carmine spider mite (% ) ([5]; 2.5 mg/L): 76% | Insecticidal activity against carmine spider mite (% ) ([5]; 5 mg/L): 93% | Insecticidal activity against carmine spider mite (% ) ([5]; 10 mg/L, contrastive test): 100% | Insecticidal activity against carmine spider mite (% ) ([5]; 100 mg/L, contrastive test): 100% | Insecticidal activity against carmine spider mite (% ) ([5]; 600 mg/L, contrastive test): 100% | control against carmine spider mite ([5]; 10 ppm, mortality after 72 hrs): 100% | pest or weed control at 100 ppm ([5]; Tetranychus cinnabarinus, 72 h, 100 ppm, mortality after 72 hrs): 100% | pest or weed control at 600 ppm ([5]; Tetranychus cinnabarinus, 72 h, 600 ppm, mortality after 72 hrs): 100% | control (test results against diamond back moth) [6, 12]: 100% | pest or weed control at 600 ppm ([6]; 72 h, 600 ppm, mortality after 72 hrs, read-out: control (test results against diamond back moth)): 100%

Cc1ncnc(NCCc2ccc(Oc3ccc(C(F)(F)F)cn3)cc2)c1Cl [Compound I-6733]
protectant activity against corn rust in vivo ([1]; 100 ppm): 100% | protectant activity against corn rust in vivo ([1]; 400 ppm): 100% | protectant activity against wheat powdery mildew in vivo ([2]; 400 ppm): 100% | control (test results against armyworm) ([3]; 600 ppm): 100% | control (test results against green peach aphid) [4, 13]: 100% | control (test results against green peach aphid) [4, 14]: 100% | control (test results against green peach aphid) [4, 15]: 100% | control against carmine spider mite [5, 12]: 100% | control against carmine spider mite [5, 16]: 100% | Insecticidal activity against diamond back moth (%) ([6]; 10 mg/L): 40% | Insecticidal activity against diamond back moth (%) ([6]; 100 mg/L): 68% | Insecticidal activity against diamond back moth (%) ([6]; 600 mg/L): 100% | control (test results against diamond back moth) [6, 16]: 100%

Cc1ncnc(NCCc2ccc(Oc3ccc(C(F)(F)F)cn3)cc2)c1Cl [Compound I-6731]
protectant activity against corn rust in vivo ([1]; 100 ppm): 100% | protectant activity against corn rust in vivo ([1]; 400 ppm): 100% | protectant activity against wheat powdery mildew in vivo ([2]; 400 ppm): 100% | pest or weed control at 600 ppm ([3]; 600 ppm): 100% | Insecticidal activity against peach aphid (%) ([4]; 1.25 mg/L, contrastive test): 60% | control (test results against green peach aphid) ([4]; 5 ppm, death rate after 48 hrs): 100% | control (test results against green peach aphid) [4, 13]: 100% | control (test results against green peach aphid) [4, 14]: 100% | control (test results against green peach aphid) [4, 15]: 100% | pest or weed control at 2.5 µg/mL [4, 7]: 93% | pest or weed control at 5 µg/mL [4, 8]: 100% | pest or weed control at 10 µg/mL [4, 9]: 100% | pest or weed control at 100 µg/mL [4, 10]: 100% | pest or weed control at 600 µg/mL [4, 11]: 100% | control against carmine spider mite [5, 12]: 100% | control against carmine spider mite [5, 16]: 100% | control (test results against diamond back moth) [6, 16]: 100%

Cc1ncnc(NCCc2ccc(Oc3ccc(C(F)(F)F)cn3)cc2)c1Cl [Compound I-6735]
protectant activity against corn rust in vivo ([1]; 100 ppm): 100% | protectant activity against corn rust in vivo ([1]; 400 ppm): 100% | protectant activity against wheat powdery mildew in vivo ([2]; 400 ppm): 100% | control (test results against armyworm) ([3]; 600 ppm): 100% | Insecticidal activity against peach aphid (%) ([4]; 1.25 mg/L, contrastive test): 67% | Insecticidal activity against peach aphid (%) ([4]; 2.5 mg/L, contrastive test): 80% | Insecticidal activity against peach aphid (%) ([4]; 5 mg/L, contrastive test): 100% | Insecticidal activity against peach aphid (%) ([4]; 10 mg/L, contrastive test): 100% | Insecticidal activity against peach aphid (%) ([4]; 100 mg/L, contrastive test): 100% | Insecticidal activity against peach aphid (%) ([4]; 600 mg/L, contrastive test): 100% | control (test results against green peach aphid) ([4]; 5 ppm, death rate after 48 hrs): 100% | control (test results against green peach aphid) [4, 13]: 100% | control (test results against green peach aphid) [4, 14]: 100% | control (test results against green peach aphid) [4, 15]: 100% | control against carmine spider mite [5, 12]: 100% | control against carmine spider mite [5, 16]: 100% | control (test results against diamond back moth) [6, 16]: 100%
